In US20150065416A1, “NOVEL DRUG COMBINATION” (FAB PHARMA SAS, priority 2013, published 2015):
Like-named read-outs stand apart in the source and are kept apart here.

How the values were obtained:
A. baumannii isolates [1] = test: Individual antimicrobial susceptibility testing (MIC, broth microdilution, CLSI); assay type: cell-based, Acinetobacter baumannii; conditions: for MIC50 / MIC90: Acinetobacter baumannii
Protocol: In the antimicrobial susceptibility testing 77 isolates of A. baumannii (from 2010) in the following sub-groups were tested: • 22 isolates generally susceptible to antimicrobial agents (“Sus”) • 20 carbapenem-resistant isolates (e.g. “MPM-R”) • 20 aminoglycoside-resistant isolates (e.g. “AMK-R”) • 15 colistin-resistant isolates. (e.g. “COL-R”)
Minimum inhibitory concentration (MIC) endpoints were determined by broth microdilution according to CLSI guidelines (CLSI, M7-A8 & M100-S22, 2012). Panels were prepared at IHMA using cation-adjusted Mueller-Hinton broth. Colonies were taken directly from a second-pass culture plate and prepared to a suspension equivalent of the 0.5 McFarland standard using normal saline.
Testing was carried out as described in the General Procedures to determine minimum inhibitory concentration (MIC) end points for compound (I), amikacin, colistin, gentamicin, meropenem and tobramycin, for 77 A. baumannii isolates. Under the “MIC (μg/ml)” heading, the first column (Range) indicates the MIC end points for the particular number (N) of isolates tested, the second column (50%) provides an estimate of the concentration that inhibits 50% (MIC50) of bacterial isolates tested, and the third column (90%) provides an estimate of the concentration that inhibits 90% of the bacterial isolates tested.

A. baumannii isolates [2] = test: Checkerboard testing (compound (I)/antibacterial agent interaction, FIC index); assay type: cell-based, Acinetobacter baumannii; conditions: Acinetobacter baumannii, read-out: MIC
Protocol: Checkerboard interaction studies were performed using 5 isolates from each of the sub-groups and time kill studies were performed using 3 isolates from each sub-group.
Checkerboards (20 isolates, 5 per sub-group) were prepared so as to contain multiple concentrations of compound (I) with different additional antibacterial agents (amikacin, gentamicin, colistin, meropenem and tobramycin) as follows:
Serial two-fold dilutions of the antimicrobial agents alone or in combination in wells of 96 well microtiter plates were inoculated with the appropriate inoculum so that each well contained approximately 4-5×10^4 CFU/ml. Plates were incubated at 35° C. for 16-20 hours. Combination concentrations were tested between 0.25×MIC and 2×MIC. Growth and sterility controls were also included in each plate.
Synergy, indifference and antagonism were calculated based upon the use of the fractional inhibitory concentration (FIC) indices as described by Pillai, Moellering & Eliopoulos (2005) whereby:
Synergism=FIC index of ≦0.5 Indifference=FIC index >1 but ≦4 Additivity >0.5 to 1 Antagonism=FIC index of >4
Checkerboard studies were carried out as described in General Procedures using twenty different A. baumannii isolates with 5 per sub-group of: susceptible, amikacin-resistant, colistin-resistant and meropenem-resistant.

[3] = Amikacin-resistant isolates, N=20
[4] = Colistin-resistant isolates, N=15
[5] = Meropenem-resistant isolates, N=20

NC[C@H]1O[C@H](O[C@H]2[C@H](O)[C@@H](O[C@H]3O[C@H](CO)[C@@H](O)[C@H](N)[C@H]3O)[C@H](N)C[C@@H]2N)[C@H](N)C[C@@H]1O [tobramycin]
32 µg/mL: MIC50 (A. baumannii isolates [1]; [4])
2 µg/mL: MIC50 (A. baumannii isolates [1]; All isolates, N=77) | MIC90 (A. baumannii isolates [1]; Susceptible isolates, N=22) | MIC (A. baumannii isolates [2]; A. baumannii 463996, colistin-resistant) | MIC (A. baumannii isolates [2]; A. baumannii 628760, susceptible) | MIC (A. baumannii isolates [2]; A. baumannii 637723, amikacin-resistant) | MIC (A. baumannii isolates [2]; A. baumannii 638115, amikacin-resistant) | MIC (A. baumannii isolates [2]; A. baumannii 655932, amikacin-resistant) | MIC (A. baumannii isolates [2]; A. baumannii 670348, susceptible)
4 µg/mL: MIC50 (A. baumannii isolates [1]; [5]) | MIC (A. baumannii isolates [2]; A. baumannii 668239, amikacin-resistant) | MIC (A. baumannii isolates [2]; A. baumannii 671050, meropenem-resistant)
0.12 to 2 µg/mL: MIC Range (A. baumannii isolates [1]; Susceptible isolates, N=22)
> 1020 µg/mL: MIC (A. baumannii isolates [2]; A. baumannii 441142, colistin-resistant) | MIC (A. baumannii isolates [2]; A. baumannii 441160, colistin-resistant)
64 µg/mL: MIC (A. baumannii isolates [2]; A. baumannii 466936, colistin-resistant)
> 32 µg/mL: MIC90 (A. baumannii isolates [1]; All isolates, N=77) | MIC50 (A. baumannii isolates [1]; [3]) | MIC90 (A. baumannii isolates [1]; [3]) | MIC90 (A. baumannii isolates [1]; [4]) | MIC90 (A. baumannii isolates [1]; [5])
256 µg/mL: MIC (A. baumannii isolates [2]; A. baumannii 517303, colistin-resistant)
1 µg/mL: MIC50 (A. baumannii isolates [1]; Susceptible isolates, N=22) | MIC (A. baumannii isolates [2]; A. baumannii 618649, meropenem-resistant) | MIC (A. baumannii isolates [2]; A. baumannii 625917, meropenem-resistant) | MIC (A. baumannii isolates [2]; A. baumannii 650216, meropenem-resistant) | MIC (A. baumannii isolates [2]; A. baumannii 661954, amikacin-resistant) | MIC (A. baumannii isolates [2]; A. baumannii 667848, meropenem-resistant) | MIC (A. baumannii isolates [2]; A. baumannii 668116, susceptible) | MIC (A. baumannii isolates [2]; A. baumannii 672190, susceptible) | MIC (A. baumannii isolates [2]; A. baumannii 674340, susceptible)
